The subject of series [1] is proteasome in living HEK cells.
The next series deals with proteasome β5 subunit (Homo sapiens, UniProt P28074). In words: Competition assay versus MVB003 in HEK293T lysate, β5 band. It counts as biochemical.
Series [2] addresses T1, proteasome β1 subunit (Homo sapiens, UniProt P28072). Kind of series: Competition assay versus MVB003 in living HEK cells, β1 band. As to conditions: inhibitor 4 h. It counts as cell-based.
Series [3] has as its target T1, proteasome β1 subunit. In words: Competition assay versus MVB003 in HEK293T lysate, β1 band. It counts as biochemical.
The target of the next series is proteasome β2 subunit (Homo sapiens, UniProt Q99436). Kind of series: Competition assay versus MVB003 in HEK293T lysate, β2 band. It counts as biochemical.

The term IC50 denotes the concentration needed to halve the response being measured.

As for `CC(C)C[C@H](NC(=O)[C@@H](NC(=O)N[C@H](C(=O)NCc1ccccc1)C(C)C)C(C)C)C(=O)N[C@@H](CC(C)C)C(=O)[C@@]1(C)CO1` [Compound 15, Benzylamide-Val-urea-Val-Leu2-EK], the Cell permeability result in series [1] was “cell permeable”. Besides, the “Fold lower concentration for β5 inhibition compared to SylA” value on proteasome β5 subunit (HEK lysate, Fig. 7) is “about 100 fold”.

For the compound `CC(C)C[C@H](NC(=O)[C@@H](NC(=O)N[C@H](C(=O)OC(C)(C)C)C(C)C)C(C)C)C(=O)[C@@]1(C)CO1` [Compound 5, tBuO-Val-urea-Val-Leu-EK2], the “Potency in living HEK cells relative to NC001” value on proteasome β1 subunit [2] was “fivefold higher potency”. In addition, the concentration for half-maximal inhibition (IC50) was 460 nM at proteasome β1 subunit [3], roughly 50000 nM on proteasome β5 subunit and greater than 50000 nM at proteasome β2 subunit.

As for `CC(C)C[C@H](NC(=O)[C@@H](NC(=O)N[C@H](C(=O)NCc1ccccc1)C(C)C)C(C)C)C(=O)[C@@]1(C)CO1` [Compound 7, Benzylamide-Val-urea-Val-Leu-EK], the IC50 was 520 nM on proteasome β1 subunit [3], 2900 nM at proteasome β5 subunit and greater than 50000 nM on proteasome β2 subunit.

For the compound `CC(C)C[C@H](NC(=O)[C@@H](NC(=O)N[C@H](C(=O)O)C(C)C)C(C)C)C(=O)[C@@]1(C)CO1` [Compound 6, HO-Val-urea-Val-Leu-EK], the values for the IC50 at proteasome β1 subunit [3], on proteasome β5 subunit and on proteasome β2 subunit were 1400 nM, greater than 50000 nM and greater than 50000 nM, respectively.

As for `CC(C)C[C@H](NC(=O)[C@@H](NC(=O)N[C@H](C(=O)OC(C)(C)C)C(C)C)C(C)C)C(=O)N[C@@H](CC(C)C)C(=O)[C@@]1(C)CO1` [Compound 13, tBuO-Val-urea-Val-Leu2-EK], the Cell permeability entry in series [1] is given as “cell permeable”. For the same compound, the concentration for half-maximal inhibition (IC50) is 1300 nM on proteasome β1 subunit [3], 16 nM on proteasome β5 subunit and 690 nM on proteasome β2 subunit. Besides, the “Fold lower concentration for β5 inhibition compared to SylA” value at proteasome β5 subunit (HEK lysate, Fig. 7) is “about 100 fold”. Moreover, on proteasome β5 subunit (HEK lysate, at 100 nM inhibitor, Fig. 7), the “Inhibition of β5 in HEK lysate” value is given as “fully inhibits”.

Take `CCCCCCCCCCNC(=O)N[C@H](C(=O)N[C@@H](CC(C)C)C(=O)N[C@@H](CC(C)C)C(=O)[C@@]1(C)CO1)C(C)C` [Compound 16, Decyl-urea-Val-Leu2-EK]: the IC50 on proteasome β1 subunit [3] and on proteasome β2 subunit was greater than 50000 nM in each case.

With `CC(C)C[C@H](NC(=O)[C@@H](NC(=O)N[C@H](C(=O)O)C(C)C)C(C)C)C(=O)N[C@@H](CC(C)C)C(=O)[C@@]1(C)CO1` [Compound 14, HO-Val-urea-Val-Leu2-EK], the IC50 at proteasome β5 subunit worked out at 480 nM.
